pIC50: −log10 of the molar value.
Target: T1, human KCNK13 (Homo sapiens, UniProt Q9HB14)
T1 construct: expressed in transfected cells
T1 sequence (Q9HB14 1-408): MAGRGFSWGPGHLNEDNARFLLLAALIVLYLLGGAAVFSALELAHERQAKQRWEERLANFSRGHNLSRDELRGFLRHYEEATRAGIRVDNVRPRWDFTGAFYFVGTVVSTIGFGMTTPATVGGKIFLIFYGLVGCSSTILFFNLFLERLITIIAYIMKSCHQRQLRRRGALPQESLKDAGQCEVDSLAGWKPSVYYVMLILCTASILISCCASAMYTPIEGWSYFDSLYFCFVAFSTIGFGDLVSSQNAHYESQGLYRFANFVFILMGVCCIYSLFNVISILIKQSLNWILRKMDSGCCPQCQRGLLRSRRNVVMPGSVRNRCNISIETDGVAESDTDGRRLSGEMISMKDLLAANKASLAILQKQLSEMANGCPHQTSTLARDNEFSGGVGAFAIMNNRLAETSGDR
Assay: KCNK13 antagonist activity, thallium (Tl+) flux FLIPR assay
Assay type: cell-based
Conditions: HEK 293 cells stably expressing human KCNK13; Tl+ sensitive dye, FLIPR; compounds 15 minutes prior to thallium sulfate; 10 point half log curves from 10 PM; read-out: hKCNK13 IC50
Method: KCNK13 antagonist activity was determined by measuring changes in intracellular Thallium (Tl^+) concentrations using a Tl^+ sensitive fluorescent dye. The changes in fluorescent signal were monitored by Fluorescent Imaging Plate Reader (FLIPR™) technology available from Molecular Devices, LLC, US. KCNK13 mediated increases in intracellular Tl+concentration were readily detected by addition of a thallium sulfate stimulus. 24 hours prior to the assay, human embryonic kidney 293 cells (HEK 293 cells) stably expressing human KCNK13 were seeded in cell culture medium in PDL coated black, clear-bottom 384-well plates (commercially available from Corning Inc., 356663) and grown overnight at 37° C., 5% CO2. On the day of the assay, cell culture media was removed and cells were loaded with potassium dye (commercially sold by Molecular Devices, LLC, US, R8222) for 1 hour at room temperature in the dark. Test compounds (at 10 point half log concentration response curves from […]) were added to cells for 15 minutes prior to the addition of thallium sulfate to all wells. The IC50 values were determined from ten point concentration response curves. Curves were generated using the average of two wells for each data point.

| Structure (SMILES) | pIC50 |
| --- | --- |
| CC(c1cccnc1)n1c(-c2nonc2N)nc2ccccc21 (racemic) [Example 85, rac-4-[1-[1-(pyridin-3-yl)ethyl]benzimidazol-2-yl]-1,2,5-oxadiazol-3-amine] | > 5.30 |
| Nc1nonc1-c1nc2cc(F)ccc2n1Cc1cncnc1 (single isomer, unassigned) [Example 5, 4-[5-fluoro-1-(pyrimidin-5-ylmethyl)benzimidazol-2-yl]-1,2,5-oxadiazol-3-amine] | > 7.00 |
| N#Cc1ncc(Cn2c(-c3nonc3N)nc3c(F)cccc32)cn1 (single isomer, unassigned) [Example 26, 5-[[2-(4-amino-1,2,5-oxadiazol-3-yl)-4-fluoro-benzimidazol-1-yl]methyl]pyrimidine-2-carbonitrile] | > 7.00 |
| Cc1nonc1-c1nc2c(Cl)cccc2n1Cc1ccc(C#N)nc1 (single isomer, unassigned) [Example 61, 5-[[4-chloro-2-(4-methyl-1,2,5-oxadiazol-3-yl)benzimidazol-1-yl]methyl]pyridine-2-carbonitrile] | > 6.70 |
| Cc1nonc1-c1nc2cccc(Cl)c2n1Cc1ccc(C#N)nc1 (single isomer, unassigned) [Example 62, 5-[[7-chloro-2-(4-methyl-1,2,5-oxadiazol-3-yl)benzimidazol-1-yl]methyl]pyridine-2-carbonitrile] | > 6.70 |
| Nc1nonc1-c1nc2c(F)cccc2n1Cc1ccncc1 (single isomer, unassigned) [Example 121, 4-[4-fluoro-1-(pyridin-4-ylmethyl)benzimidazol-2-yl]-1,2,5-oxadiazol-3-amine] | > 7.00 |
| Cc1snnc1-c1nc2cccc(F)c2n1Cc1cccnc1 (single isomer, unassigned) [Example 128, 4-[7-fluoro-1-(pyridin-3-ylmethyl)benzimidazol-2-yl]-5-methyl-1,2,3-thiadiazole] | > 7.00 |
| Cc1snnc1-c1nc2c(F)cccc2n1Cc1cccnc1 (single isomer, unassigned) [Example 129, 4-[4-fluoro-1-(pyridin-3-ylmethyl)benzimidazol-2-yl]-5-methyl-1,2,3-thiadiazole] | > 7.00 |
| Nc1nonc1-c1nc2c(F)cccc2n1Cc1ccnnc1 (single isomer, unassigned) [Example 133, 4-(4-fluoro-1-(pyridazin-4-ylmethyl)-benzimidazol-2-yl)-1,2,5-oxadiazol-3-amine] | > 7.00 |
| Nc1nonc1-c1nc2c(F)cccc2n1Cc1ccncn1 (single isomer, unassigned) [Example 135, 4-(4-fluoro-1-(pyrimidin-4-ylmethyl)-benzimidazol-2-yl)-1,2,5-oxadiazol-3-amine] | > 6.70 |
| Cc1nonc1-c1nc2cccc(F)c2n1Cc1ccc(S(C)(=O)=O)nc1 (single isomer, unassigned) [Example 137, 3-(7-fluoro-1-((6-(methylsulfonyl)pyridin-3-yl)methyl)-benzimidazol-2-yl)-4-methyl-1,2,5-oxadiazole] | > 6.30 |
| Cc1nonc1-c1nc2c(F)cccc2n1Cc1ccc(S(C)(=O)=O)nc1 (single isomer, unassigned) [Example 138, 3-(4-fluoro-1-((6-(methylsulfonyl)pyridin-3-yl)methyl)-benzimidazol-2-yl)-4-methyl-1,2,5-oxadiazole] | > 6.00 |
| Cc1nonc1-c1nc2c(F)cc(F)cc2n1Cc1cccnn1 (single isomer, unassigned) [Example 147, 3-(4,6-difluoro-1-(pyridazin-3-ylmethyl)-benzimidazol-2-yl)-4-methyl-1,2,5-oxadiazole] | > 6.70 |
| Nc1nonc1-c1nc2cccc(F)c2n1Cc1ccc(Cl)nn1 (single isomer, unassigned) [Example 148, 4-(1-((6-chloropyridazin-3-yl)methyl)-7-fluoro-benzimidazol-2-yl)-1,2,5-oxadiazol-3-amine] | > 7.30 |
| Nc1nonc1-c1nc2c(F)cccc2n1Cc1ccc(Cl)nn1 (single isomer, unassigned) [Example 149, 4-(1-((6-chloropyridazin-3-yl)methyl)-4-fluoro-benzimidazol-2-yl)-1,2,5-oxadiazol-3-amine] | > 7.00 |
| COc1ccc(Cn2c(-c3nonc3N)nc3cccc(F)c32)nn1 (single isomer, unassigned) [Example 152, 4-(7-fluoro-1-((6-methoxypyridazin-3-yl)methyl)-benzimidazol-2-yl)-1,2,5-oxadiazol-3-amine] | > 7.30 |
| COc1ccc(Cn2c(-c3nonc3N)nc3c(F)cccc32)nn1 (single isomer, unassigned) [Example 153, 4-(4-fluoro-1-((6-methoxypyridazin-3-yl)methyl)-benzimidazol-2-yl)-1,2,5-oxadiazol-3-amine] | > 6.70 |
| Nc1nsnc1-c1nc2cccc(F)c2n1Cc1cccnn1 (single isomer, unassigned) [Example 156, 4-(7-fluoro-1-(pyridazin-3-ylmethyl)-benzimidazol-2-yl)-1,2,5-thiadiazol-3-amine] | > 7.30 |

Other lines, results leading:

| pIC50 | Structure (SMILES) |
| --- | --- |
| > 7.30 | Nc1nonc1-c1nc2ccc(F)cc2n1Cc1cncnc1 (single isomer, unassigned) [Example 4, 4-[6-fluoro-1-(pyrimidin-5-ylmethyl)benzimidazol-2-yl]-1,2,5-oxadiazol-3-amine] |
| > 7.30 | N#Cc1ncc(Cn2c(-c3nonc3N)nc3cccc(F)c32)cn1 (single isomer, unassigned) [Example 25, 5-[[2-(4-amino-1,2,5-oxadiazol-3-yl)-7-fluoro-benzimidazol-1-yl]methyl]pyrimidine-2-carbonitrile] |
| > 7.30 | [2H]C([2H])(c1cccnc1)n1c(-c2nonc2C)nc2c(F)cccc21 (single isomer, unassigned) [Example 30, 3-[1-[dideuterio(pyridin-3-yl)methyl]-4-fluoro-benzimidazol-2-yl]-4-methyl-1,2,5-oxadiazole] |
| > 7.30 | [2H]C([2H])(c1cccnc1)n1c(-c2nonc2C)nc2cccc(F)c21 (single isomer, unassigned) [Example 31, 3-[1-[dideuterio(pyridin-3-yl)methyl]-7-fluoro-benzimidazol-2-yl]-4-methyl-1,2,5-oxadiazole] |
| > 7.30 | Nc1nonc1-c1nc2c(F)cccc2n1Cc1cccnc1 (single isomer, unassigned) [Example 87, 4-[4-fluoro-1-(pyridin-3-ylmethyl)benzimidazol-2-yl]-1,2,5-oxadiazol-3-amine] |
| > 7.30 | Nc1nonc1-c1nc2ccc(F)cc2n1Cc1cccnc1 (single isomer, unassigned) [Example 118, 4-[6-fluoro-1-(pyridin-3-ylmethyl)benzimidazol-2-yl]-1,2,5-oxadiazol-3-amine] |
| > 7.30 | Nc1nonc1-c1nc2cc(F)ccc2n1Cc1cccnc1 (single isomer, unassigned) [Example 119, 4-[5-fluoro-1-(pyridin-3-ylmethyl)benzimidazol-2-yl]-1,2,5-oxadiazol-3-amine] |
| > 7.30 | Cc1nonc1-c1nc2cccc(F)c2n1Cc1cccnc1 (single isomer, unassigned) [Example 122, 3-[7-fluoro-1-(pyridin-3-ylmethyl)benzimidazol-2-yl]-4-methyl-1,2,5-oxadiazole] |
| > 7.30 | Cc1nonc1-c1nc2c(F)cccc2n1Cc1cccnc1 (single isomer, unassigned) [Example 123, 3-[4-fluoro-1-(pyridin-3-ylmethyl)benzimidazol-2-yl]-4-methyl-1,2,5-oxadiazole] |
| > 7.30 | Cc1nsnc1-c1nc2c(F)cccc2n1Cc1cccnc1 (single isomer, unassigned) [Example 124, 3-[4-fluoro-1-(pyridin-3-ylmethyl)benzimidazol-2-yl]-4-methyl-1,2,5-thiadiazole] |
| > 7.30 | Cc1nsnc1-c1nc2cccc(F)c2n1Cc1cccnc1 (single isomer, unassigned) [Example 125, 3-[7-fluoro-1-(pyridin-3-ylmethyl)benzimidazol-2-yl]-4-methyl-1,2,5-thiadiazole] |
| > 7.30 | Nc1nonc1-c1nc2cccc(F)c2n1Cc1ccnnc1 (single isomer, unassigned) [Example 132, 4-(7-fluoro-1-(pyridazin-4-ylmethyl)-benzimidazol-2-yl)-1,2,5-oxadiazol-3-amine] |
| > 7.30 | Nc1nonc1-c1nc2cccc(F)c2n1Cc1ccncn1 (single isomer, unassigned) [Example 134, 4-(7-fluoro-1-(pyrimidin-4-ylmethyl)-benzimidazol-2-yl)-1,2,5-oxadiazol-3-amine] |
| > 7.30 | Cc1nonc1-c1nc2cc(F)cc(F)c2n1Cc1cccnn1 (single isomer, unassigned) [Example 146, 3-(5,7-difluoro-1-(pyridazin-3-ylmethyl)-benzimidazol-2-yl)-4-methyl-1,2,5-oxadiazole] |

— US20240158385A1, “NOVEL COMPOUNDS” (Cerevance, Inc., priority 2021, published 2024)
